Source: EP2292587A1, “PHARMACEUTICAL COMPOSITION FOR INHIBITING THE TRANSCRIPTION FACTOR INDUCIBLE BY HYPOXIA, MODULATORS OF PATHOLOGICAL PROCESSES OF ANGIOGENESIS, ONCOGENESIS, INFLAMMATION, APOPTOSIS, AND CELLULAR THERAPY” (Fundacion De La Comunidad Valenciana Centro De …, priority 2008, dated 2009)
“Also recorded” adds a separate entry of the source. Where two headings read alike, the source gives them in different places.

Key:
HCT116/p53-/- cells = test: cell viability by ATP quantification in colon cancer cells; type: cell-based, human; settings: 48 hours, 0.5-1000 µM
Procedure: To determine the effects of FM19G11 on human colon cancer cells (HCT116 and HT29), cell viability assays were carried out in HT29, HCT116/p53^+/+ and HCT116/p53^-/- cells by means of quantifying the ATP which associates with metabolically active cells.

epSPCs = test: differentiation of epSPCs into oligodendrocytes (immunocytochemistry); type: cell-based, rat; settings: 500 nM, 1% O2
From the text: The hypoxic condition blocks stem cell differentiation, and it is well acknowledged that this process is due to the activity of the HIF proteins. The exposure of ependymal stem cells to a low concentration of oxygen (1% O2) prevents the progress of differentiation aimed at the oligodendrocyte glial strain, clearly shown by both the morphological characteristics of the culture and by the low expression of typical markers of this cell strain (NG2, RIP, 04).
The analysis of the expression of the cell markers Rip, NG2 and 04 in the presence or absence of FM19G11 under normoxic and/or hypoxic conditions was carried out by immunocytochemical techniques (Figure 15). After fixing the cell culture with paraformaldehyde (4%), it was permeabilized with Triton (0.05%) for 10 minutes, and after blocking non-specific bindings with fetal bovine serum (1%), it was incubated with the corresponding antibodies (acquired from Chemicon, USA). Secondary antibodies conjugated with different fluorochromes, rhodamine in rabbit IgG and fluorescein in mouse IgG, reveal the specific labeling of the primary antibodies. DAPI (Sigma Aldrich Co, UK) was used for the counterstaining of the nuclei.

VEGF and COX-2 = test: qPCR of VEGF and COX-2 in dental pulp stem cells; type: cell-based, human; settings: 0.5 µM
From the text: The culture medium used was Low-Glucose DMEM supplemented with 10% fetal bovine serum. The human dental pulp mesenchymal stem line [Gronthos S, et al., "Postnatal human dental pulp stem cells (DPSCs) in vitro and in vivo" Proc Natl Acad Sci U S A, 2000 Dec 5; 97(25):13625-30.; Gronthos S et al.,." Stem cell properties of human dental pulp stem cells" J Dent Res, 2002 Aug; 81(8):531-5], obtained from human third molars from adults (19-29 years of age), was provided by the Cardioregeneration Dept. of the CIPF. The cells were seeded at a density of 2000 cells/cm^2, and when they reached a 90% confluence they were subcultured again by means of trypsinization.
Total RNA was isolated using the commercial kit RNAeasy (Qiagen) and following the manufacturer's instructions. 1 µg of total RNA of each sample was retrotranscribed using the commercial kit Reverse Transcription Reagent (Applied Biosystem). The quantitative polymerase chain reaction (qPCR) was carried out using Taqman probes and primers designed by Applied Biosystem for hsVEGF (Ref HS00173626_m1), hsCOX-2 (Ref Hs00153133_m1) and hsGAPDH (Ref HS 99999905_m1). […] The expression levels of VEGF and COX-2 were expressed as the increase of Ct with respect to the expression levels of GAPDH (constitutive expression gene): Ct (ΔCt)=Ct (VEGF or […])-Ct (GAPDH). […]

HIF = test: luciferase cell assay based on the HIF response elements (HRE), HeLa 9XHRE-LUC; design: species or system human; settings: Homo sapiens, HeLa
From the text: In order to identify direct inhibitors of the activity of HIF, a stable recombinant line was first constructed from the cervical tumor line, known in scientific literature as HeLa, which contained the deoxyribonucleic acid (DNA) sequences of the region located between positions -985 and -951 of the human vascular endothelial growth factor (hVEGF), repeated nine times (9X) and fused to the luciferase reporter gene (LUC). This plasmid, provided by Dr. Manuel Ortiz de Landazuri from the Hospital de La Princesa of Madrid, called 9XHRE-LUC, was prepared using a commercial kit (Endofree Maxi-Prep; Qiagen, Inc., Valencia, CA). The transfections were performed with FuGene6 (Roche, cat.1814443) according to the manufacturer's instructions, the µg DNA: µg FuGene ratio was 1:3. The transfected cell lines were generated by cotransfection with the vector pCMV-Hygrom which expressed a hygromycin resistance gene in mammalian cells, allowing the selection of the transfected clones. After 48 hours, the growth medium was substituted with fresh medium containing 100 µg/ml hygromycin (Sigma), the clones resistant to the antibiotic were collected and analyzed by means of RT-PCR to select the clone with the desired construct. Routinely, the HeLa 9XHRE-LUC cell line was maintained in exponential growth by means of performing subcultures in DMEM (Invitrogen-Life Technologies, Inc., Carlsbad, CA), supplemented with 10% inactivated fetal bovine serum (Whittacker Bioproducts), penicillin (50 IU/ml), streptomycin (50 µg/ml) (Invitrogen-Life Technologies, Inc., Carlsbad, CA). The cells were cultured at 37°C with a humidified atmosphere containing 5% CO2 and 300 nM Desferoxamine (DFX; Sigma St. Louis, MO).
The compounds of the Collection of the CIPF, coming from a selection of commercial collections of Sigma-Aldrich, were solubilized in DMSO at a final concentration of 5 mM and preserved at -80°C. The concentration of these compounds in the luciferase assay was 1 mcM finally in the well of the multi-well plate in which the reaction was carried out. The luciferase assays were performed in white 96-well plates (Valtecknova ref. 3917), using the kit Bright-Glo™ Luciferase Assay System (Promega, Inc., Madison, WI) following the instructions supplied by the manufacturer.
According to the methodology of the cell assay based on the HIF response elements (Example 1), the intermediate compounds of the synthesis and several synthesized analogs were tested to obtain the SAR of FM19G11.

MLH1 and MSH6 = test: Western blot of mismatch repair proteins and acetyllysine in C17.2 neural stem cells; type: cell-based, mouse; settings: 500 nM; for expression of the repair proteins (MMRs: MLH1, MSH6): normoxia or hypoxia
From the text: According to the results obtained, the C17.2 neural stem cell subjected to hypoxia experienced repression in the DNA repair (mismatch repair, MMR) system. […] The monoclonal anti MLH1 and MSH6 antibodies were used in the analysis, Nx referring to normoxia and Hx to hypoxia.
The monoclonal antibodies anti-acetyllysine, anti-MLH1 and MSH6 as well as against beta-actin used as a loading control were used in the analysis; wherein Nx refers to Normoxia and Hx to hypoxia.

Cc1ccc(C(=O)COC(=O)c2cccc(NC(=O)c3ccc([N+](=O)[O-])cc3[N+](=O)[O-])c2)cc1 [FM19G11, 2-oxo-2-(p-tolyl)ethyl 3-((2,4-dinitro)benzamido)benzoate]
sensitivity (cell viability, ATP) compared to HCT116/p53+/+ or HT29 (HCT116/p53-/- cells): less sensitive | expression levels of the oligodendrocyte markers (NG2, RIP, 04) and phenotype (epSPCs): recovers the expression levels | increase of both VEGF and COX-2 (mRNA) (VEGF and COX-2; hypoxic conditions, 6 and 18 hours): inhibited | expression levels of VEGF and COX-2 (VEGF and COX-2; normoxic conditions): did not cause any effect | IC50 (HIF): 0.08 µM | IC50 (HIF; 6 h, read-out: IC50 from dose response curve (Figure 2 B)): 0.08 µM | IC50 (HIF; read-out: IC50 HRE (µM)): 0.08 µM | overall degree of acetylation of different proteins (anti-acetyllysine) (MLH1 and MSH6): increases the overall degree of acetylation | expression of the repair proteins (MMRs: MLH1, MSH6) (MLH1 and MSH6): capable of recovering the expression of the MMRs more effectively than TSA; also recorded: recovered | expression of the repair proteins (MMRs: MLH1, MSH6) (MLH1 and MSH6; listed as 19G11): capable of reestablishing the expression
